Patent publication US20250319073A1, “COMPOSITIONS AND METHODS FOR THE TREATMENT OF HUNTINGTON’S DISEASE AND HTT PROTEINOPATHIES” (priority 2022, published 2025)

Experiments:
R6/2 mice = test: Open field test in R6/2 mice; type: in vivo, mouse; details: 12 weeks of age
Protocol: Study Summary—A total of 46 male R6/2 mice and 15 male wild-type littermate control mice (WT) were used in the study. The mice were genotyped and the R6/2 mice were divided into different treatment groups based on their pre-treatment body weight. The treatment with Compound (Ia) (0.5 or 5 mg/kg; 10 ml/kg, intraperitoneally (i.p.), QD) or Vehicle (10 ml/kg, i.p., QD) was started at 4 weeks of age. Body weights were measured before the treatment onset and continued twice a week until the end of the study. Fine motor kinematic analysis and rotarod test were performed at 10 weeks of age and the open field activity and clasping behavior were measured at 12 weeks of age for all mice. At 8 and 12 weeks of age the glucose uptake was measured by ^18F-FDG PET and the striatal metabolites were measured using MR spectroscopy for 9-10 mice per group. […] The blood samples were used to prepare peripheral blood mononuclear cells (PBMCs) on which the flow cytometry/luminescence analysis was performed for following assays: mitochondrial reactive oxygen species (ROS) (MitoSox), and ATP levels (Cell TiterGlow). […]
Open Field Test—At 12 weeks of age all mice were subjected to open field test. […] Mice were placed in the center of the chamber and their behavior was recorded for 30 min in 5-min bins. […]

[1] = test system: Peripheral Blood Mononuclear Cells (PBMC); test: CellTiter-Glo 2.0 ATP level assay in PBMCs of treated mice; type: in vivo, mouse; details: R6/2 mice, 0.5 mg/kg / 5 mg/kg i.p. QD, PBMCs collected at 13 weeks of age
Protocol: Euthanasia & Sample Collection—At 13 weeks of age, 9 mice per group were euthanized by deep anesthesia with sodium pentobarbital (180 mg/kg). The remaining mice were euthanized and any samples were not collected, except the tail and ear samples. A terminal blood sample (as much as possible) was collected by cardiac puncture into a syringe. The whole blood was placed in Li-Hep tube at RT and used immediately for preparation of PBMCs. The whole brain was collected and fresh frozen in liquid nitrogen and stored at −80° C. Blood was collected also from extra animals as staining controls for the flow cytometry assays (n=3 extra animals per day). […]
PBMC Extraction—Whole blood (approximately 400-500 μL) was stored at room temperature (RT) before the start of the PBMC isolations. […] Right before measurement 1 μL of propidium iodide was added and the cell number and viability was determined by MACSquant Analyzer 10 flow cytometer. […]
The cells were analyzed immediately after the staining using the MACSQuant Analyzer 10 (Miltenyi Biotec) and Cytation 3 (Cell titerglow). […]
ATP Levels: CellTiter-Glo 2.0® Assay—The CellTiter-Glo® 2.0 Assay provides a homogeneous method to determine the number of viable cells in culture by quantitating the amount of ATP present, which indicates the presence of metabolically active cells. […]
• 1. […] Place 50,000 cells/well white walled luminescence suitable plate in DPBS. • 3. […]

Cc1cc(O)cc(C)c1C[C@H](NC(=O)[C@H](N)CCCNC(=N)N)C(=O)N[C@@H](CCCCN)c1nc(Cc2ccccc2)no1.Cl.Cl [Compound (Ia), (R)-2-amino-N—((S)-1-(((S)-5-amino-1-(3-benzyl-1,2,4-oxadiazol-5-yl)pentyl)amino)-3-(4-hydroxy-2,6-dimethylphenyl)-1-oxopropan-2-yl)-5-guanidinopentanamide]
total distance traveled in the open field compared to vehicle treated R6/2 mice (R6/2 mice; 5 mg/kg i.p. QD, p<0.05, One-way ANOVA): traveled longer total distance | total rearing frequency in the open field, between R6/2 groups (R6/2 mice; 0.5 or 5 mg/kg i.p. QD, p>0.05, One-way ANOVA): no significant differences | ATP levels (Cell Titer Glow) in PBMCs, R6/2+Vehicle vs treated R6/2 [1]: no significant differences
